From patent US8216782B2, “PTTG1 as a biomarker for cancer treatment” (Cedars-Sinai Medical Center, priority 2008, dated 2012)
Entries after “also recorded” stand apart in the source; their conditions may differ.

Columns and labels:
[1] = system: Aurora Kinase A; test: Kinase activity of Aurora Kinase A immunoprecipitated from treated HCT116 cells; type: cell-based; conditions: PTTG1−/− vs WT HCT116 cells
Excerpt: (§1) FIG. 6 depicts PTTG1 and DNA damage pathway, in accordance with an embodiment of the present invention. […] (B) Aurora Kinase A activity was less inhibited after DNA damage treatment in PTTG1^−/− cells. Lane C1, positive control with Aurora Kinase A; lane C2, negative control without Aurora Kinase A; lane WT, Aurora Kinase A co-immunoprecipitated from HCT116 WT cells after doxorubicin treatment; Lane −/−, Aurora Kinase A immunoprecipitated from HCT116 PTTG1^−/− cells after doxorubicin treatment. Aurora Kinase A activity is higher in PTTG1^−/− than WT HCT116 cells. (C) C, PTTG1 WT plasmid; M3, PTTG1 S165A mutation; M9, PTTG1 S181A mutation. Plasmids were transfected into HCT116 PTTG1^−/− cells and treated with proteosome inhibitor LLnL to enrich phosphorylated PTTG1. Arrow depicts the major band. […] (D) WT, PTTG1 WT plasmid; M9, PTTG1 S181A mutation were transfected into HCT116 PTTG1^−/− and co-immunoprecipitation performed. […] (E) Proposed signaling pathway for PTTG1 action in G2 DNA damage checkpoint.
Aurora Kinase A activity is inhibited by DNA damage (Krystyniak et al., 2006). The inventors therefore tested Aurora Kinase A activity in HCT116 WT and PTTG1^−/− cells after treatment with doxorubicin. […] Phosphorylated PTTG1 may therefore act with Aurora Kinase A and play a role in the DNA damage-induced G2 checkpoint. […]

[2] = system: HCT116 WT cells; test: Anchorage-dependent colony formation assay; type: cell-based; conditions: 0.16 μM doxorubicin
Procedure: (§2) Briefly, 20,000 cells were plated in a six-well culture dish, allowed to attach overnight and treated with depicted drug concentrations. Cells were cultured in standard culture medium containing indicated treatments for twelve days and medium re-freshened every three days. Colonies were stained with 0.5% crystal violet in methanol/acetic acid (3:1) and those composed of >50 cells were counted.

[3] = system: HCT116 PTTG1−/− cells; test: Anchorage-dependent colony formation assay; type: cell-based; conditions: PTTG1−/− colonies, 0.16 μM doxorubicin
Procedure: as §2

[4] = system: HCT116 WT cells; test: WST-1 cell proliferation assay; type: cell-based; conditions: Homo sapiens, HCT-116, 48 h, read-out: cells remaining viable
Procedure: (§3) FIG. 4 depicts that PTTG1 regulates cell response to Aurora Kinase inhibition, in accordance with an embodiment of the present invention. (A) PTTG1^−/− cell proliferation was attenuated in response to Aurora Kinase A siRNA (mean±S.D., n=3. P<0.05 vs WT). Cells were seeded into 96-well plates, cultured overnight, and then transfected with siRNAs (100 nM). After 72 hours, premixed WST-1 cell proliferation reagent (10 ul) was added to each well. Cells were incubated for a further four hours and shaken thoroughly for one minute before measurement. […] Cells were seeded into 96-well plates, cultured overnight, and then treated with drug as indicated for 48 hours. Viable cells were measured using Premixed WST-1 cell proliferation reagent. (C) Anchorage-dependent colony formation assay was performed as described herein. […] (mean±S.D., n=3. P<0.05 vs WT) (D) Western blot showing that over-expressed PTTG1 rescued PTTG1^−/− sensitivity to Aurora Kinase inhibitor III (12.5 uM) (mean±S.D., n=3. P>0.05 vs WT); PTTG1 knock-down enhanced WT cell sensitivity to Aurora Kinase inhibitor III (12.5 uM) (mean±S.D., n=3. P>0.05 vs PTTG1^−/−). PTTG1^−/−=PTTG1-null or KO cells.
(§4) Cell proliferation was evaluated using WST-1 cell proliferation reagent (obtained from Clontech Laboratories, Inc.; Mountain View, Calif.). Briefly, 90 μl cells were seeded into 96-well plates and cultured overnight, treated with drugs for 48 hours, and 10 μl premixed WST-1 cell proliferation reagent added. Cells were incubated for a further four hours, shaken and absorbance measured at 450 nm using a Victor 3 multiwell plate reader (obtained from PerkinElmer, Inc.; Waltham, Mass.). Cell viability rate was calculated for each well as A450 treated cells/A450 control cells×100% (A450: OD value at 450 nm).

[5] = system: HCT116 PTTG1−/− cells; test: WST-1 cell proliferation assay; type: cell-based
Procedure: as §3, §4

[6] = system: PTTG1; test: Western blot of PTTG1 phosphorylation after DNA damage; type: cell-based; conditions: 24 hours, 5 μM doxorubicin
Excerpt: as §1

[7] = system: WT HCT116 tumors; test: Subcutaneous tumor implant in nude mice; type: in vivo; conditions: 50 mg/kg, 17 days
Procedure: Tumor volume was measured twice a week.

[8] = system: PTTG1−/− HCT116 tumors; test: Subcutaneous tumor implant in nude mice; conditions: 50 mg/kg, 17 days
Procedure: Tumor volume was measured twice a week. Mice were sacrificed at day 18 and tumors were collected and weighted.

[9] = system: HCT116 cells; test: Apoptosis by Tunel assay and activated caspase 3 levels; type: cell-based
[10] = system: HCT116 WT cells; test: β-galactosidase staining (senescence); type: cell-based; conditions: 0.313 uM, 48 hrs
Excerpt: (§5) Cells were fixed and stained with β-galactosidase staining kit (Sigma).

[11] = system: HCT116 PTTG1−/− cells; test: β-galactosidase staining (senescence); type: cell-based; conditions: 0.313 uM, 48 hrs
Excerpt: as §5

[12] = system: p21; test: p21 expression after treatment; type: cell-based; conditions: WT and PTTG1−/− cells
Excerpt: FIG. 10 depicts P21 level is higher in PTTG1^−/− cells than WT. P21 induces senescence.

SMILES	Aurora Kinase A activity after doxorubicin treatment [1]	colonies survived [2] [%]	colonies survived [3] [%]	viability at 1.25 µM [4] [%]	viability at 1.25 µM ([5]; Homo sapiens, HCT-116, 48 h, read-out: cells remaining viable) [%]	sensitivity of PTTG1−/− cell growth versus WT (WST-1) ([5]; PTTG1−/− vs WT HCT116 cells)	phosphorylated PTTG1 [6]	tumor growth [7]	tumor growth [8]	apoptosis [9]	senescent cells (β-galactosidase staining) [10] [%]	senescent cells (β-galactosidase staining) [11] [%]	p21 expression [12]
COc1cccc2c1C(=O)c1c(O)c3c(c(O)c1C2=O)C[C@@](O)(C(=O)CO)C[C@@H]3O[C@H]1C[C@H](N)[C@H](O)[C@H](C)O1 [doxorubicin]	less suppressed in PTTG1^−/− than WT cells	74	36	55	27	more sensitive	Increased phosphorylated PTTG1	–	–	–	–	–	–
O=C(CCCCCCC(=O)Nc1ccccc1)NO [SAHA, suberoylanilide hydroxamic acid]	–	–	–	–	–	–	–	did not show any difference between control and treated group; also recorded: had no effect	significantly inhibited	did not cause apoptosis	7	43	enhanced p21 expression
